This note sets out measurements from US5140009A (Tap Pharmaceuticals, Inc., priority 1990, dated 1992).

Square brackets hold non-standard residues; d marks the D form. Peptide text beside a SMILES is read from it. * marks the point of attachment. Propanoyl(3-(4-F-phenyl)) = O=C(CCc1ccc(F)cc1)*; Propanoyl(3-(4-Cl-Ph)) = O=C(CCc1ccc(Cl)cc1)*; d1Nal = N[C@H](Cc1cccc2ccccc12)C(=O)O; d2Nal = N[C@H](Cc1ccc2ccccc2c1)C(=O)O; dLys(iPr) = CC(C)NCCCC[C@@H](N)C(=O)O; Lys(iPr) = CC(C)NCCCC[C@H](N)C(=O)O; NMeY = CN[C@@H](Cc1ccc(O)cc1)C(=O)O; dBta = N[C@H](Cc1csc2ccccc12)C(=O)O; Pyrazinecarbonyl = O=C(c1cnccn1)*; NMeF = CN[C@@H](Cc1ccccc1)C(=O)O; d3Pal = N[C@H](Cc1cccnc1)C(=O)O; Cha = N[C@@H](CC1CCCCC1)C(=O)O; NMeL = CN[C@@H](CC(C)C)C(=O)O; Nicotinoyl = O=C(c1cccnc1)*; dOrn = NCCC[C@@H](N)C(=O)O; Bn = c1ccc(C*)cc1

The assay concerns the target T1, LHRH receptors (Rattus norvegicus, UniProt P30969).
T1 construct: Pituitary membranes containing LHRH receptors are prepared in batches from quick-frozen rat pituitaries; tissue Hilltop Labs; host or cells: rat pituitary membranes
T1 sequence (P30969 1-327): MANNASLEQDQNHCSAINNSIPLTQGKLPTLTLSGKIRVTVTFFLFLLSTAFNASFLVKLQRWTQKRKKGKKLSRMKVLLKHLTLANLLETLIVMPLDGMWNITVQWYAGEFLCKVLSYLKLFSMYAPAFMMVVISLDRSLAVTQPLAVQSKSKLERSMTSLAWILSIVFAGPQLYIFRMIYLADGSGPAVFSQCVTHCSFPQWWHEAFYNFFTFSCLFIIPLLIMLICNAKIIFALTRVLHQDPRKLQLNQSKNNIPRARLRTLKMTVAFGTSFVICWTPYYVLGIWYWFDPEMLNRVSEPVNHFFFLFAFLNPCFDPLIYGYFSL
As to the kind of experiment: Receptor Binding (radioligand receptor binding assay). As to conditions: table 4; rat pituitary membranes, radioligand 50 pM, 2 hours at 4° C.; read-out: Receptor Binding pkI (converted).

Take `C[C@@H](NC(=O)[C@@H]1CCCN1C(=O)[C@H](CCCNC(=N)N)NC(=O)[C@H](CC1CCCCC1)NC(=O)[C@@H](CCCCN)NC(=O)[C@H](Cc1ccc(O)cc1)N(C)C(=O)[C@H](CO)NC(=O)[C@@H](Cc1cccc2ccccc12)NC(=O)CCc1ccc(F)cc1)C(N)=O` [Compound 185, (3-10)[N-(3-(4-Fluorophenyl)propionyl)-D-1-Nal^3 -NMeTyr^5 -D-Lys^6 -Cha^7 -D-Ala^10]LHRH] ({Propanoyl(3-(4-F-phenyl))}-[d1Nal]S[NMeY][dK][Cha]RP[dA]-NH2): the Ki is 0.0155 nM.
The same measure for `CC(C)C[C@H](NC(=O)[C@@H](CCCCN)NC(=O)[C@H](Cc1ccc(O)cc1)N(C)C(=O)[C@H](CO)NC(=O)[C@@H](Cc1ccc2ccccc2c1)NC(=O)CCc1ccc(F)cc1)C(=O)N[C@@H](CCCNC(=N)N)C(=O)N1CCC[C@H]1C(=O)N[C@H](C)C(N)=O` [Compound 186, (3-10)[N-(3-(4-Fluorophenyl)propionyl)-D-2-Nal^3 -NMeTyr^5 -D-Lys^6 -D-Ala^10]LHRH] ({Propanoyl(3-(4-F-phenyl))}-[d2Nal]S[NMeY][dK]LRP[dA]-NH2): 0.0339 nM; for `CC(C)C[C@H](NC(=O)[C@@H](CCCCNC(=O)c1cccnc1)NC(=O)[C@H](Cc1ccc(O)cc1)N(C)C(=O)[C@H](CO)NC(=O)[C@@H](Cc1ccc2ccccc2c1)NC(=O)CCc1ccc(F)cc1)C(=O)N[C@@H](CCCNC(=N)N)C(=O)N1CCC[C@H]1C(=O)N[C@H](C)C(N)=O` [Compound 187, (3-10)[N-(3-(4-Fluorophenyl)propionyl)-D-2-Nal^3 -NMeTyr^5 -D-Lys^6 (N-epsilon-nicotinyl)-D-Ala^10]LHRH] ({Propanoyl(3-(4-F-phenyl))}-[d2Nal]S[NMeY][dK](Nicotinoyl)LRP[dA]-NH2): 0.0224 nM; for `COc1ccc(C[C@H](NC(=O)[C@H](CO)NC(=O)[C@@H](Cc2cccc3ccccc23)NC(=O)CCc2ccc(F)cc2)C(=O)N[C@H](CCCCN)C(=O)N[C@@H](CC(C)C)C(=O)N[C@@H](CCCNC(=N)N)C(=O)N2CCC[C@H]2C(=O)N[C@H](C)C(N)=O)cc1` [Compound 188, (3-10)[N-(3-(4-Fluorophenyl)propionyl)-D-1-Nal^3 -Tyr^5 (OMe)-D-Lys^6 -D-Ala^10]LHRH] ({Propanoyl(3-(4-F-phenyl))}-[d1Nal]SY(Me)[dK]LRP[dA]-NH2): 0.00331 nM.
The same measure for `CC(C)C[C@H](NC(=O)[C@@H](CCCCN)NC(=O)[C@H](Cc1ccccc1)N(C)C(=O)[C@H](CO)NC(=O)[C@@H](Cc1cccc2ccccc12)NC(=O)CCc1ccc(F)cc1)C(=O)N[C@@H](CCCNC(=N)N)C(=O)N1CCC[C@H]1C(=O)N[C@H](C)C(N)=O` [Compound 189, (3-10)[N-(3-(4-Fluorophenyl)propionyl)-D-1-Nal^3 -NMePhe^5 -D-Lys^6 -D-Ala^10]LHRH] ({Propanoyl(3-(4-F-phenyl))}-[d1Nal]S[NMeF][dK]LRP[dA]-NH2): 0.0055 nM.
To `CC(C)C[C@@H](C(=O)N[C@@H](CCCNC(=N)N)C(=O)N1CCC[C@H]1C(=O)N[C@H](C)C(N)=O)N(C)C(=O)[C@@H](CCCCN)NC(=O)[C@H](Cc1ccc(O)cc1)N(C)C(=O)[C@H](CO)NC(=O)[C@@H](Cc1cccc2ccccc12)NC(=O)CCc1ccc(F)cc1` [Compound 190, (3-10)[N-(3-(4-Fluorophenyl)propionyl)-D-1-Nal^3 -NMeTyr^5 -D-Lys^6 -NMeLeu^7 -D-Ala^10]LHRH] ({Propanoyl(3-(4-F-phenyl))}-[d1Nal]S[NMeY][dK][NMeL]RP[dA]-NH2) belongs 0.0158 nM.
On to `CC(C)C[C@H](NC(=O)[C@@H](CCCCNC(=O)c1cccnc1)NC(=O)[C@H](CCCCNC(=O)c1cccnc1)NC(=O)[C@H](CO)NC(=O)[C@@H](Cc1cccc2ccccc12)NC(=O)CCc1ccc(F)cc1)C(=O)N[C@@H](CCCNC(=N)N)C(=O)N1CCC[C@H]1C(=O)N[C@H](C)C(N)=O` [Compound 191] ({Propanoyl(3-(4-F-phenyl))}-[d1Nal]SK(Nicotinoyl)[dK](Nicotinoyl)LRP[dA]-NH2), for which the Ki was 0.00955 nM.
For `CC(C)C[C@H](NC(=O)[C@@H](CCCN)NC(=O)[C@H](Cc1ccc(O)cc1)N(C)C(=O)[C@H](CO)NC(=O)[C@@H](Cc1cccc2ccccc12)NC(=O)CCc1ccc(F)cc1)C(=O)N[C@@H](CCCNC(=N)N)C(=O)N1CCC[C@H]1C(=O)N[C@H](C)C(N)=O` [Compound 192, (3-10)[N-(3-(4-Fluorophenyl)propionyl)-D-1-Nal^3 -NMeTyr^5 -D-Orn^6 -D-Ala^10]LHRH] ({Propanoyl(3-(4-F-phenyl))}-[d1Nal]S[NMeY][dOrn]LRP[dA]-NH2), the Ki is 0.00676 nM.
To `CC(C)C[C@H](NC(=O)[C@@H](CCCCNC(=O)c1cccnc1)NC(=O)[C@H](Cc1ccc(O)cc1)N(C)C(=O)[C@H](CO)NC(=O)[C@@H](Cc1cccnc1)NC(=O)CCc1ccc(Cl)cc1)C(=O)N[C@@H](CCCCNC(C)C)C(=O)N1CCC[C@H]1C(=O)N[C@H](C)C(N)=O` [Compound 194, (3-10)[N-(3-(4-Chlorophenyl)propionyl)-D-3-Pal^3 -NMeTyr^5 -D-Lys^6 (N-epsilon-nicotinyl)-Lys^8 (N-epsilon-isopropyl)-D-Ala^10]LHRH] ({Propanoyl(3-(4-Cl-Ph))}-[d3Pal]S[NMeY][dK](Nicotinoyl)L[Lys(iPr)]P[dA]-NH2) belongs 0.191 nM.
Regarding `CC(C)C[C@H](NC(=O)[C@@H](Cc1ccc(O)cc1)NC(=O)[C@H](Cc1ccc(O)cc1)N(C)C(=O)[C@H](CO)NC(=O)[C@@H](Cc1c[nH]c2ccccc12)NC(=O)CCc1ccc(F)cc1)C(=O)N[C@@H](CCCCNC(C)C)C(=O)N1CCC[C@H]1C(=O)N[C@H](C)C(N)=O` [Compound 196, (3-10)[N-(3-(4-Fluorophenyl)propionyl)-D-Trp^3 -NMeTyr^5 -D-Tyr^6 -Lys^8 (N-epsilon-isopropyl)-D-Ala^10]LHRH] ({Propanoyl(3-(4-F-phenyl))}-[dW]S[NMeY][dY]L[Lys(iPr)]P[dA]-NH2), the Ki is 0.0234 nM.
Take `CC(C)C[C@H](NC(=O)[C@@H](CCCCNC(C)C)NC(=O)[C@H](Cc1ccc(O)cc1)N(C)C(=O)[C@H](CO)NC(=O)[C@@H](Cc1csc2ccccc12)NC(=O)CCc1ccc(F)cc1)C(=O)N[C@@H](CCCNC(=N)N)C(=O)N1CCC[C@H]1C(=O)N[C@H](C)C(N)=O` [Compound 198, (3-10)[N-(3-(4-Fluorophenyl)propionyl)-D-3-Bal^3 -NMeTyr^5 -D-Lys^6 (N-epsilon-isopropyl)-D-Ala^10]LHRH] ({Propanoyl(3-(4-F-phenyl))}-[dBta]S[NMeY][dLys(iPr)]LRP[dA]-NH2): the Ki is 0.00933 nM.
With `CC(C)C[C@H](NC(=O)[C@@H](CCCCN)NC(=O)[C@H](Cc1ccc(O)cc1)N(C)C(=O)[C@H](CO)NC(=O)[C@@H](Cc1cccc2ccccc12)NC(=O)CCc1ccc(F)cc1)C(=O)N[C@@H](CCCCNC(C)C)C(=O)N1CCC[C@H]1C(=O)N[C@H](C)C(N)=O` [Compound 199, (3-10)[N-(3-(4-Fluorophenyl)propionyl)-D-1-Nal^3 -NMeTyr^5 -D-Lys^6 -Lys^8 (N-epsilon-isopropyl)-D-Ala^10]LHRH] ({Propanoyl(3-(4-F-phenyl))}-[d1Nal]S[NMeY][dK]L[Lys(iPr)]P[dA]-NH2), the Ki is 0.00832 nM.
To `COc1ccc(C[C@H](NC(=O)[C@H](CO)NC(=O)[C@@H](Cc2cccc3ccccc23)NC(=O)CCc2ccc(F)cc2)C(=O)N[C@H](CCCCNC(=O)c2cccnc2)C(=O)N[C@@H](CC(C)C)C(=O)N[C@@H](CCCCNC(C)C)C(=O)N2CCC[C@H]2C(=O)N[C@H](C)C(N)=O)cc1` [Compound 200, (3-10)[N-(3-(4-Fluorophenyl)propionyl)-D-1-Nal^3 -Tyr^5 (OMe)-D-Lys^6 (N-epsilon-nicotinyl)-Lys^8 (N-epsilon-isopropyl)-D-Ala^10]LHRH] ({Propanoyl(3-(4-F-phenyl))}-[d1Nal]SY(Me)[dK](Nicotinoyl)L[Lys(iPr)]P[dA]-NH2) belongs 0.00437 nM; to `CC(C)C[C@H](NC(=O)[C@@H](Cc1cccnc1)NC(=O)[C@H](Cc1ccc(O)cc1)NC(=O)[C@H](CO)NC(=O)[C@@H](Cc1cccc2ccccc12)NC(=O)CCc1ccc(F)cc1)C(=O)N[C@@H](CCCCNC(C)C)C(=O)N1CCC[C@H]1C(=O)N[C@H](C)C(N)=O` [Compound 201, (3-10)[N-(3-(4-Fluorophenyl)propionyl)-D-1-Nal^3 -D-3Pal^6 -Lys^8 (N-epsilon-isopropyl)-D-Ala^10]LHRH] ({Propanoyl(3-(4-F-phenyl))}-[d1Nal]SY[d3Pal]L[Lys(iPr)]P[dA]-NH2), 0.0204 nM.
Consider `CC(C)C[C@H](NC(=O)[C@@H](Cc1cccnc1)NC(=O)[C@H](Cc1ccc(O)cc1)NC(=O)[C@H](COCc1ccccc1)NC(=O)[C@@H](Cc1cccc2ccccc12)NC(=O)CCc1ccc(F)cc1)C(=O)N[C@@H](CCCCNC(C)C)C(=O)N1CCC[C@H]1C(=O)N[C@H](C)C(N)=O` [Compound 202, (3-10)[N-(3-(4-Fluorophenyl)propionyl)-D-1-Nal^3 -Ser^4 (O-Bzl)-D-3-Pal^6 -Lys^8 (N-epsilon-isopropyl)-D-Ala^10]LHRH] ({Propanoyl(3-(4-F-phenyl))}-[d1Nal]S(Bn)Y[d3Pal]L[Lys(iPr)]P[dA]-NH2), for which the Ki was 0.138 nM.
On to `COc1ccc(C[C@H](NC(=O)[C@H](CO)NC(=O)[C@@H](Cc2cccc3ccccc23)NC(=O)CCc2ccc(F)cc2)C(=O)N[C@H](CCCCNC(=O)c2cnccn2)C(=O)N[C@@H](CC(C)C)C(=O)N[C@@H](CCCCNC(C)C)C(=O)N2CCC[C@H]2C(=O)N[C@H](C)C(N)=O)cc1` [Compound 203, (3-10)[N-(3-(4-Fluorophenyl)propionyl)-D-1-Nal^3 -Tyr^5 (OMe)-D-Lys^6 (N-epsilon-2-carbonylpyrazinyl)-Lys^8 (N-epsilon-isopropyl)-D-Ala^10]LHRH] ({Propanoyl(3-(4-F-phenyl))}-[d1Nal]SY(Me)[dK](Pyrazinecarbonyl)L[Lys(iPr)]P[dA]-NH2), for which the Ki was 0.0209 nM.
